Laboratory results taken from patent publication US20240024291A1, “Uses of Dihydroorotate Dehydrogenase Inhibitors” (University of Maryland, Baltimore, priority 2022, published 2024).

Experiments:
Mayo 39 neurospheres = experiment: Sorafenib and DHODHi combination, SynergyFinder; format: cell-based, human; details: Mayo 39 GBMs
Mayo 6 neurospheres = experiment: Sorafenib and DHODHi combination, SynergyFinder
Mayo 6 = experiment: Approved Oncology Drugs Set screen alone and combined with DHODHi; details: for Alone (growth, drug alone): Mayo 6, drug alone; for Combination (growth, drug combined with DHODHi): Mayo 6, drug combined with DHODHi (10 μM)
Protocol: To identify potential small molecules that can synergize with DHODHi, the Approved Oncology Drugs Set (NIH Developmental Therapeutics Program) was screened alone and combined with DHODHi (10 μM) against Mayo 6.

[1] = tested on: EGFRviii expressing 08-387 and 913 glioblastoma cells; experiment: Gemcitabine sensitization assay (Alamar blue); format: cell-based, human; details: varying dosages of gemcitabine and 0.05 nM of compound 1
Protocol: Ten thousand 08-387 or 913 glioblastoma cells per well were seeded in a 96 well plate. […] Post 72 hr of treatment, cell viability was calculated on Alamar blue absorbance reading.
To further evaluate the potential role of EGFR in compound 1 resistance, the 913 and 08-387 neurosphere lines were transduced with lentiviruses encoding EGFRvIll or GFP (as control) and these neurospheres were challenged with a relatively high dose of 1 mM compound 1.

Row | SMILES | Alone (growth, drug alone) (Mayo 6) | Combination (growth, drug combined with DHODHi) (Mayo 6) | further results
1 | CNC(=O)c1cc(Oc2ccc(NC(=O)Nc3ccc(Cl)c(C(F)(F)F)c3)cc2)ccn1 [Sorafenib] | – | – | sensitization to DHODHi by Sorafenib (Mayo 39 neurospheres): moderately sensitized; most synergistic area score (Mayo 6 neurospheres; Mayo 6, Sorafenib in combination with DHODHi): 10.48; sensitization to DHODHi by Sorafenib (Mayo 6 neurospheres; Mayo 6 GBMs, SynergyFinder): moderately sensitized
2 | CNC(=O)c1cc(Oc2ccc(NC(=O)Nc3ccc(Cl)c(C(F)(F)F)c3)c(F)c2)ccn1 [Regorafenib, regorafenib] | 1.00 | 0.64 | –
3 | C=CC(=O)Nc1cc(Nc2nccc(-c3cn(C)c4ccccc34)n2)c(OC)cc1N(C)CCN(C)C [Osimertinib, osimertinib] | 0.35 | 0.0001 | –
4 | Nc1ccn([C@@H]2O[C@H](CO)[C@@H](O)C2(F)F)c(=O)n1 [gemcitabine, reference compound] | – | – | sensitivity of glioblastomas to gemcitabine [1]: sensitive
